Key:
Type in all cases: functional
RPMI-8226 = assay: Anticancer activity against human RPMI-8226 cells assessed as cell growth at 10 umol/L incubated for 48 hrs by SRB assay relative to control; details: RPMI-8226, 48 h, dose 10 µmol/L, read-out: Activity
SR = assay: Anticancer activity against human SR cells assessed as cell growth at 10 umol/L incubated for 48 hrs by SRB assay relative to control; details: dose 10 µmol/L, read-out: Activity
NCI-H226 = assay: Anticancer activity against human NCI-H226 cells assessed as cell growth at 10 umol/L incubated for 48 hrs by SRB assay relative to control; details: NCI-H226, 48 h, dose 10 µmol/L, read-out: Activity
NCI-H322M = assay: Anticancer activity against human NCI-H322M cells assessed as cell growth at 10 umol/L incubated for 48 hrs by SRB assay relative to control; details: dose 10 µmol/L, read-out: Activity
NCI-H460 = assay: Anticancer activity against human NCI-H460 cells assessed as cell growth at 10 umol/L incubated for 48 hrs by SRB assay relative to control; details: NCI-H460, 48 h, dose 10 µmol/L, read-out: Activity
NCI-H522 = assay: Anticancer activity against human NCI-H522 cells assessed as cell growth at 10 umol/L incubated for 48 hrs by SRB assay relative to control; details: NCI-H522, 48 h, dose 10 µmol/L, read-out: Activity
COLO 205 = assay: Anticancer activity against human COLO 205 cells assessed as cell growth at 10 umol/L incubated for 48 hrs by SRB assay relative to control; details: COLO 205, 48 h, dose 10 µmol/L, read-out: Activity
SW-620 = assay: Anticancer activity against human SW620 cells assessed as cell growth at 10 umol/L incubated for 48 hrs by SRB assay relative to control; details: SW-620, 48 h, dose 10 µmol/L, read-out: Activity
SF-268 = assay: Anticancer activity against human SF-268 cells assessed as cell growth at 10 umol/L incubated for 48 hrs by SRB assay relative to control; details: SF-268, 48 h, dose 10 µmol/L, read-out: Activity
SF-295 = assay: Anticancer activity against human SF-295 cells assessed as cell growth at 10 umol/L incubated for 48 hrs by SRB assay relative to control; details: SF-295, 48 h, dose 10 µmol/L, read-out: Activity
SNB-19 = assay: Anticancer activity against human SNB-19 cells assessed as cell growth at 10 umol/L incubated for 48 hrs by SRB assay relative to control; details: SNB-19, 48 h, dose 10 µmol/L, read-out: Activity
SNB-75 = assay: Anticancer activity against human SNB-75 cells assessed as cell growth at 10 umol/L incubated for 48 hrs by SRB assay relative to control; details: SNB-75, 48 h, dose 10 µmol/L, read-out: Activity
LOX IMVI = assay: Anticancer activity against human LOX IMVI cells assessed as cell growth at 10 umol/L incubated for 48 hrs by SRB assay relative to control; details: dose 10 µmol/L, read-out: Activity
SK-MEL-5 = assay: Anticancer activity against human SK-MEL-5 cells assessed as cell growth at 10 umol/L incubated for 48 hrs by SRB assay relative to control; details: SK-MEL-5, 48 h, dose 10 µmol/L, read-out: Activity
UACC-62 = assay: Anticancer activity against human UACC-62 cells assessed as cell growth at 10 umol/L incubated for 48 hrs by SRB assay relative to control; details: UACC-62, 48 h, dose 10 µmol/L, read-out: Activity
IGROV-1 = assay: Anticancer activity against human IGROV-1 cells assessed as cell growth at 10 umol/L incubated for 48 hrs by SRB assay relative to control; details: IGROV-1, 48 h, dose 10 µmol/L, read-out: Activity
OVCAR-4 = assay: Anticancer activity against human OVCAR-4 cells assessed as cell growth at 10 umol/L incubated for 48 hrs by SRB assay relative to control; details: OVCAR-4, 48 h, dose 10 µmol/L, read-out: Activity
NCI/ADR-RES = assay: Anticancer activity against human NCI-ADR-RES cells assessed as cell growth at 10 umol/L incubated for 48 hrs by SRB assay relative to control; details: dose 10 µmol/L, read-out: Activity
A498 = assay: Anticancer activity against human A498 cells assessed as cell growth at 10 umol/L incubated for 48 hrs by SRB assay relative to control; details: A498, 48 h, dose 10 µmol/L, read-out: Activity
CAKI-1 = assay: Anticancer activity against human CAKI-1 cells assessed as cell growth at 10 umol/L incubated for 48 hrs by SRB assay relative to control; details: CAKI-1, 48 h, dose 10 µmol/L, read-out: Activity
RXF 393 = assay: Anticancer activity against human RXF 393 cells assessed as cell growth at 10 umol/L incubated for 48 hrs by SRB assay relative to control; details: RXF 393, 48 h, dose 10 µmol/L, read-out: Activity
UO-31 = assay: Anticancer activity against human UO-31 cells assessed as cell growth at 10 umol/L incubated for 48 hrs by SRB assay relative to control; details: UO-31, 48 h, dose 10 µmol/L, read-out: Activity
PC-3 = assay: Anticancer activity against human PC-3 cells assessed as cell growth at 10 umol/L incubated for 48 hrs by SRB assay relative to control; details: PC-3, 48 h, dose 10 µmol/L, read-out: Activity
DU-145 = assay: Anticancer activity against human DU-145 cells assessed as cell growth at 10 umol/L incubated for 48 hrs by SRB assay relative to control; details: DU-145, 48 h, dose 10 µmol/L, read-out: Activity
MCF7 = assay: Anticancer activity against human MCF7 cells assessed as cell growth at 10 umol/L incubated for 48 hrs by SRB assay relative to control; details: MCF7, 48 h, dose 10 µmol/L, read-out: Activity
Hs-578T = assay: Anticancer activity against human Hs-578T cells assessed as cell growth at 10 umol/L incubated for 48 hrs by SRB assay relative to control; details: dose 10 µmol/L, read-out: Activity
BT-549 = assay: Anticancer activity against human BT-549 cells assessed as cell growth at 10 umol/L incubated for 48 hrs by SRB assay relative to control; details: BT-549, 48 h, dose 10 µmol/L, read-out: Activity
MDA-MB-468 = assay: Anticancer activity against human MDA-MB-468 cells assessed as cell growth at 10 umol/L incubated for 48 hrs by SRB assay relative to control; details: MDA-MB-468, 48 h, dose 10 µmol/L, read-out: Activity
[1] = system: Panel NCI-60 (60 carcinoma cell lines); assay: Antiproliferative activity against human panel NCI-60 (60 carcinoma cell lines) assessed as mean cell growth at 10 umol/L incubated for 48 hrs by SRB assay relative to control; details: dose 10 µmol/L, at 10 µM
K562 [2] = assay: Induction of apoptosis in human K562 cells at 0.5 uM incubated for 3 days by RNase/PI staining based flow cytometry (reference value: 1.4 %); details: time 3 day
K562 [3] = assay: Induction of cell cycle arrest in human K562 cells at S phase at 0.5 uM incubated for 3 days by RNase/PI staining based flow cytometry (reference value: 16 %); details: time 3 day

Row | SMILES | growth at 10 µM (RPMI-8226) [%] | growth at 10 µM (SR) [%] | growth at 10 µM (NCI-H226) [%] | growth at 10 µM (NCI-H322M) [%] | growth at 10 µM (NCI-H460) [%] | growth at 10 µM (NCI-H522) [%] | growth at 10 µM (COLO 205) [%] | growth at 10 µM (SW-620) [%] | growth at 10 µM (SF-268) [%] | growth at 10 µM (SF-295) [%] | growth at 10 µM (SNB-19) [%] | growth at 10 µM (SNB-75) [%] | growth at 10 µM (LOX IMVI) [%] | growth at 10 µM (SK-MEL-5) [%] | growth at 10 µM (UACC-62) [%] | growth at 10 µM (IGROV-1) [%] | growth at 10 µM (OVCAR-4) [%] | growth at 10 µM (NCI/ADR-RES) [%] | growth at 10 µM (A498) [%] | growth at 10 µM (CAKI-1) [%] | other results
1 | CCN1C(=O)N(CC)C2C1NN=c1s/c(=C\c3ccc(Cl)cc3Cl)c(=O)n12 (configuration not stated) | 16.5 | 12.3 | 48.8 | 42.4 | 5.7 | -8.8 | -7.9 | 20.5 | 42.3 | -12.6 | 27.9 | 19.7 | 18.3 | 66.1 | 28.9 | -43.3 | 46.1 | 5.7 | 16.9 | 21.1 | growth at 10 µM (RXF 393): 61.1%; growth at 10 µM (UO-31): 35.9%; growth at 10 µM (PC-3): 24.6%; growth at 10 µM (DU-145): 6%; growth at 10 µM (MCF7): 14%; growth at 10 µM (Hs-578T): 15.8%; growth at 10 µM (BT-549): 15.9%; growth at 10 µM (MDA-MB-468): 5.4%; Activity [1]: 18.2%; Activity (K562 [2]): 5%; Activity (K562 [3]): 14%
2 | COc1cc2c(c(OC)c1OC)-c1ccc(OC)c(=O)cc1[C@@H](NC(C)=O)CC2 [COLCHICINE] | 2.3 | 5.4 | 31 | 36.1 | 2.9 | -64.2 | -47.6 | 26.4 | 35.1 | -10.6 | 19 | 19.3 | 26.5 | 30.7 | 19.1 | -49 | 56.4 | -20.9 | 15.5 | 20.3 | growth at 10 µM (RXF 393): 15.3%; growth at 10 µM (UO-31): 21.2%; growth at 10 µM (PC-3): -28.6%; growth at 10 µM (DU-145): 7.6%; growth at 10 µM (MCF7): -9.6%; growth at 10 µM (Hs-578T): -7.1%; growth at 10 µM (BT-549): 55.1%; growth at 10 µM (MDA-MB-468): 70.5%; Activity [1]: 8.4%; Activity (K562 [2]): 3.1%; Activity (K562 [3]): 19%

From ChEMBL document CHEMBL5385976, “Recognition of arylmethylidene derivatives of imidazothiazolotriazinones as novel tubulin polymerization inhibitors” (RSC Med Chem, 2024)
